Measured values from patent publication US12697343B2, “Intravenous istaroxime for the treatment of acute heart failure” (Seismic Pharmaceuticals Operations LLC, priority 2021, dated 2026).
Structures can show the parent of a compound that is named as a salt.

Tested on: patients hospitalized for acute heart failure (AHF)
Assay: Echocardiographic parameters (tissue Doppler echocardiography), phase II trial of 24 h istaroxime infusion
Type: in vivo, human
Set-up: E/e′ change from baseline to 24 h: dose or concentration left out as unconfirmed
Details: for A wave mean change from baseline / CI mean change from baseline / E wave mean change from baseline / E/A ratio mean change from baseline / E/e′ ratio mean change from baseline / EDV Index mean change from baseline / EDV mean change from baseline / ESV Index mean change from baseline / ESV mean change from baseline / IVC diameter mean change from baseline / LAA mean change from baseline / LAV mean change from baseline / LAVI mean change from baseline / LVEF mean change from baseline / PASP mean change from baseline / SVI mean change from baseline / S′ mean change from baseline / TAPSE mean change from baseline / e′ mean change from baseline: 1.0 μg/Kg/min; for E/e′ change from baseline to 24 h (primary endpoint): 1.0 μg/kg/min (cohort 2), mITT, hydrochloride
Excerpt: The measurement of one or more cardiac parameters disclosed herein can be measured by Echocardiography which may be performed on subjects according to international standards (see, for example, Lang R M et a I. J Am Soc Echocardiogr 2005; 18(12): 1440-63; Nagueh S F et al. Eur J Echocardiogr 2009; 10(2): 165-93; Evangelista A et a I. Eur J Echocardiogr 2008; 9(4):438-48).
In some embodiments, cardiac parameters can be measured as follows: • 1. Cardiac dimension measures: • a. Left ventricle end diastolic diameter (EDD): measured with M-mode echocardiography at the level of mitral valve (MV) leaflets from parasternal long axis view (PLAX) (normal range [N R]: 42-59 mm males and 39-53 mm females); • b. Left ventricle end systolic diameter (ESD): measured with M-mode echocardiography at the level of mitral valve (MV) leaflets from PLAX (N R: 25-35 mm): • c. Left ventricle end diastolic volume (EDV): measured with M-mode echocardiography at the level of mitral valve (MV) leaflets from PLAX (N R: 67-155 mL males and 56-104 mL females); • d. Left ventricle end systolic volume (ESV): measured with M-mode echocardiography at the level of mitral valve (MV) leaflets from PLAX (N R: 22-58 mL males and 19-49 mL females); • e. Left atrium diameter (LAD): measured at end-ventricular systole with M-mode echocardiography from PLAX. (N R: 30-40 mm males and 27-38 mm females) • f. Left atrium area (LAA): measured from apical four chamber view (NR: £20 cm2); and • g. Left atrium volume (LAV): derived from area-length measured from apical four chamber view (N R: 18-58 mL males and 22-52 mL females). • 2. Left ventricle diastolic function parameters: • a. E wave: measured from mitral valve pulsed wave Doppler, is the peak velocity of early filling. […] A wave: measured from mitral valve pulsed wave Doppler is the peak velocity of late atrial filling. Not evaluable in subjects with AF: • c. E wave deceleration time (EDT): measured from mitral valve pulsed wave Doppler represent the slope of the descending part of E wave; • d. E/A ratio: determines the type of diastolic filling pattern (normal E/A=1-2 and EDT=150-200 ms, abnormal relaxation E/A<1 and EDT>240 ms, pseudonormal E/A=0.8-1.5: restrictive E/A^32 and EDT <160 ms). Not evaluable in subjects with AF; • e. Ea: measured with tissue Doppler method at the lateral and septal side of the mitral annulus from apical four chamber view is the early diastolic velocity. The value has been calculated as the average between Ea lateral and Ea septal. (NR310 cm/s) (see Nagueh S F et al. Eur J Echocardiogr. 2009:10(2):165-93); • f. Aa: measured with tissue Doppler method at the lateral and septal side of the mitral annulus from apical four chamber view is the late atrial diastolic velocity. The value has been calculated as the average between Aa lateral and Aa septal. Not evaluable in subjects with AF; and • g. E/Ea ratio: this is a derived measure from E and Ea value. This is highly correlated with left ventricle filling pressure and with prognosis in subjects with HF. (NR: <13) (see Nagueh S F et al. supra). • 3. Left ventricle systolic function parameters: • a. Left ventricle ejection fraction (LVEF): measured with Simpson biplane method according to international recommendations from apical four chamber view and apical two chamber view. (NR ^355%) (see Lang R M et al. J Am Soc Echocardiogr. 2005:18(12): 1440-63); and • b. Sa: measured with tissue Doppler method at the lateral and septal side of the mitral annulus from apical four chamber view. The value has been calculated as the average between Sa lateral and Sa septal. […] Overall cardiac contraction parameters: • a. Stroke volume (SV): is a derived measure obtained with the application of Bernoulli's formula using the dimension of left ventricle outflow tract (LVOT) as diameter and LVOT time velocity integral as velocity. (NR>60 mL/beat); • b. Cardiac output (CO): is derived by the multiplication of SV× heart rate (HR) (NR: >4 L/min); • c. […]

[1] = 1.0 μg/kg/min, mean ± standard deviation

C[C@]12CCC(=NOCCN)C[C@@H]1C(=O)C[C@@H]1[C@@H]2CC[C@]2(C)C(=O)CC[C@@H]12 [Istaroxime, (E,Z)-3-((2-aminoethoxy)imino)androstane-6,17-dione hydrochloride]
A wave mean change from baseline (6 hours): 5.88 cm/s
CI mean change from baseline (6 hours): 0.15 l/min/m^2
E wave mean change from baseline (6 hours): -10.19 cm/s
E/A ratio mean change from baseline (6 hours): −0.35
E/e′ ratio mean change from baseline (6 hours): −2.05
EDV Index mean change from baseline (6 hours): 0.64 ml/m^2
EDV mean change from baseline (6 hours): 1.35 mL
ESV Index mean change from baseline (6 hours): −2.42 ml/m^2
ESV mean change from baseline (6 hours): -4.62 mL
IVC diameter mean change from baseline (6 hours): −1.24 mm
LAA mean change from baseline (6 hours): −1.03 cm^2
LAV mean change from baseline (6 hours): -4.94 mL
LAVI mean change from baseline (6 hours): −2.86 mL/m^2
LVEF mean change from baseline (6 hours): 2.35%
PASP mean change from baseline (6 hours): −2.60 mmHg
SVI mean change from baseline (6 hours): 4.32 ml/beat/m^2
S′ mean change from baseline (6 hours): 1.00 cm/s
TAPSE mean change from baseline (6 hours): 1.56 mm
e′ mean change from baseline (6 hours): -0.03 cm/s
A wave mean change from baseline (24 hours): 9.00 cm/s
CI mean change from baseline (24 hours): 0.15 l/min/m^2
E wave mean change from baseline (24 hours): -14.06 cm/s
E/A ratio mean change from baseline (24 hours): −0.65
E/e′ ratio mean change from baseline (24 hours): −3.16
EDV Index mean change from baseline (24 hours): −2.08 ml/m^2
EDV mean change from baseline (24 hours): -3.67 mL
ESV Index mean change from baseline (24 hours): −6.23 ml/m^2
ESV mean change from baseline (24 hours): -11.39 mL
IVC diameter mean change from baseline (24 hours): −2.23 mm
LAA mean change from baseline (24 hours): −2.21 cm^2
LAV mean change from baseline (24 hours): -12.94 mL
LAVI mean change from baseline (24 hours): −7.32 mL/m^2
LVEF mean change from baseline (24 hours): 3.82%
PASP mean change from baseline (24 hours): −4.76 mmHg
SVI mean change from baseline (24 hours): 5.49 ml/beat/m^2
S′ mean change from baseline (24 hours): 0.81 cm/s
TAPSE mean change from baseline (24 hours): 1.16 mm
e′ mean change from baseline (24 hours): 0.10 cm/s
A wave mean change from baseline (48 hours): 5.30 cm/s
CI mean change from baseline (48 hours): 0.20 l/min/m^2
E wave mean change from baseline (48 hours): -11.53 cm/s
E/A ratio mean change from baseline (48 hours): −0.36
E/e′ ratio mean change from baseline (48 hours): −2.21
EDV Index mean change from baseline (48 hours): −1.86 ml/m^2
EDV mean change from baseline (48 hours): -3.18 mL
ESV Index mean change from baseline (48 hours): −4.46 ml/m^2
ESV mean change from baseline (48 hours): -8.09 mL
IVC diameter mean change from baseline (48 hours): −2.19 mm
LAA mean change from baseline (48 hours): −0.94 cm^2
LAV mean change from baseline (48 hours): -6.67 mL
LAVI mean change from baseline (48 hours): −3.80 mL/m^2
LVEF mean change from baseline (48 hours): 2.06%
PASP mean change from baseline (48 hours): −3.00 mmHg
SVI mean change from baseline (48 hours): 2.91 ml/beat/m^2
S′ mean change from baseline (48 hours): 0.26 cm/s
TAPSE mean change from baseline (48 hours): 0.31 mm
e′ mean change from baseline (48 hours): 0.19 cm/s
E/e′ change from baseline to 24 h (primary endpoint) (mean ± standard deviation): −3.16 ± 2.59
E/e′ change from baseline to 24 h (primary endpoint) (mean ± standard deviation, listed as istaroxime): −3.16±2.59
E/A ratio change at 24 h [1]: −0.65 ± 1.10
LV ejection fraction change at 24 h [1]: 3.82 ± 4.14%
LV end-diastolic volume index change at 24 h [1]: −2.08 ± 9.05 mL/m^2
LV end-systolic volume index change at 24 h [1]: −6.23 ± 9.23 mL/m^2
Left atrial area change at 24 h [1]: −2.21 ± 3.18 cm^2
Left atrial volume index change at 24 h [1]: −7.32 ± 10.0 mL/m^2
Stroke volume index change at 24 h [1]: 5.49 ± 4.98 mL/beat/m^2
S′ change at 24 h [1]: 0.81 ± 1.01 cm/s
E/e′ change from baseline to 24 h (per-protocol population): −3.19±2.63
